Measurements: US9115102B2, “N-[2-hydroxycarbamoyl-2-(piperazinyl) ethyl] benzamide compounds, their preparation and their use as TACE inhibitors” (GALDERMA RESEARCH & DEVELOPMENT, priority 2009, dated 2015)

Columns and labels:
TACE enzyme = TACE enzyme (Homo sapiens, UniProt P78536); test: Enzymatic test of TACE inhibition (fluorescent substrate); assay type: biochemical
MMP1 = MMP1 (Homo sapiens (Human), UniProt P03956); test: Selectivity test, MMP1; assay type: biochemical
MMP3 = MMP3 (Homo sapiens (Human), UniProt P08254); test: Selectivity test, MMP3; assay type: biochemical
MMP9 = MMP9 (Homo sapiens (Human), UniProt P14780); test: Selectivity test, MMP9; assay type: biochemical
ADAM10 = ADAM10 (Homo sapiens (Human), UniProt O14672); test: Selectivity test, ADAM10; assay type: biochemical
ADAM9 = ADAM9 (Homo sapiens (Human), UniProt Q13443); test: biochemical
[1] = enzymatic test, substrate 40 μM

TACE enzyme, sequence (P78536 215-824 limits assumed): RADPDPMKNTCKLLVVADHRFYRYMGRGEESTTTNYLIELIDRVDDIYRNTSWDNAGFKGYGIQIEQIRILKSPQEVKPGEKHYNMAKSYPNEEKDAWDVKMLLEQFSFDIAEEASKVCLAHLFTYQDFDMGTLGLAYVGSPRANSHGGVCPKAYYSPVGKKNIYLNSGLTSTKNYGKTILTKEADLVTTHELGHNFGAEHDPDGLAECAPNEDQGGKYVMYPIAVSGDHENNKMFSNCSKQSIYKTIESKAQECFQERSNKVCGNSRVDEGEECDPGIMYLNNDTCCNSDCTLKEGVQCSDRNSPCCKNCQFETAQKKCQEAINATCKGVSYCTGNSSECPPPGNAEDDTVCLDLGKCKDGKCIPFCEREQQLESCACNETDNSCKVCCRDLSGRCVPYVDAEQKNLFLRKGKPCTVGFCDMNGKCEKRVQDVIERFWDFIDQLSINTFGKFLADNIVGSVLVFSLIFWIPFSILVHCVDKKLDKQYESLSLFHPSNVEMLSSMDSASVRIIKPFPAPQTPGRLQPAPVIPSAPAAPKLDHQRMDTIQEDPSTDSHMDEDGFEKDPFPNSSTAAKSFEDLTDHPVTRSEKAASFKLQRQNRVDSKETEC
MMP3, sequence (P08254 100-477): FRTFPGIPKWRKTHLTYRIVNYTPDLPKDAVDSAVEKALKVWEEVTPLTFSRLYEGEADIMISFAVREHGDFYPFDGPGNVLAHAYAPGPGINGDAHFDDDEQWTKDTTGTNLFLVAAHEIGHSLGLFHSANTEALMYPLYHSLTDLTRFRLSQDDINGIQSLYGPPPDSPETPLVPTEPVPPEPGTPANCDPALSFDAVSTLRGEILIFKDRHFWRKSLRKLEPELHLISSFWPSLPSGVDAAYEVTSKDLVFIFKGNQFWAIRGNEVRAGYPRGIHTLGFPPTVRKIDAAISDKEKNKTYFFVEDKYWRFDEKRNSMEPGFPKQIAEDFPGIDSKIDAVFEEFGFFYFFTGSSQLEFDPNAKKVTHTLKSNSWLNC
MMP1, sequence (P03956 100-469): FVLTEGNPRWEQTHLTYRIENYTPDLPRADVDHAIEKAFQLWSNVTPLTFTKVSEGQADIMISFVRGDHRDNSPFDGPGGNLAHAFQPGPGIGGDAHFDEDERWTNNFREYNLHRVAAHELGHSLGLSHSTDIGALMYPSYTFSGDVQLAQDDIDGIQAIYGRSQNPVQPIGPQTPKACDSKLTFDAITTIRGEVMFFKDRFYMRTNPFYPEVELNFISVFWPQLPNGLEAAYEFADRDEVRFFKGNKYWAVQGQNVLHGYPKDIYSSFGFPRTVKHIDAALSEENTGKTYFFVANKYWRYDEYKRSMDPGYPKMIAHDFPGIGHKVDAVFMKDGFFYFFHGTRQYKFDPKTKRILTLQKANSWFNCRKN
MMP9, sequence (P14780 94-707): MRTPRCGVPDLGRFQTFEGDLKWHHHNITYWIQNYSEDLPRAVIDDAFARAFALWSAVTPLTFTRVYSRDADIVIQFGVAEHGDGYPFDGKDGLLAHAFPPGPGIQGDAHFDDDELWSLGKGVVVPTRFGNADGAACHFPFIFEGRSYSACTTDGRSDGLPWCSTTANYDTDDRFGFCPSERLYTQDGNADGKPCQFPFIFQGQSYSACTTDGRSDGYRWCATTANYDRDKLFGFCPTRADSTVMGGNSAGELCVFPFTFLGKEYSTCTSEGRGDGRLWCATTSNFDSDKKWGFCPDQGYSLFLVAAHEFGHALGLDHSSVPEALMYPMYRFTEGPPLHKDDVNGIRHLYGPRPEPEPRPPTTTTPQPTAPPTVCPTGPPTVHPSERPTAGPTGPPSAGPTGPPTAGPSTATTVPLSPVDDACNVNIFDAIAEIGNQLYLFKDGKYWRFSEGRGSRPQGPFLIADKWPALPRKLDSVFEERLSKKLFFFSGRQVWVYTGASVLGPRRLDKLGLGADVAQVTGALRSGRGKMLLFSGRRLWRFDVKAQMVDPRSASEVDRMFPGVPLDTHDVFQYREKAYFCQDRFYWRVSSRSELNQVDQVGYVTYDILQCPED
ADAM10, sequence (O14672 214-748): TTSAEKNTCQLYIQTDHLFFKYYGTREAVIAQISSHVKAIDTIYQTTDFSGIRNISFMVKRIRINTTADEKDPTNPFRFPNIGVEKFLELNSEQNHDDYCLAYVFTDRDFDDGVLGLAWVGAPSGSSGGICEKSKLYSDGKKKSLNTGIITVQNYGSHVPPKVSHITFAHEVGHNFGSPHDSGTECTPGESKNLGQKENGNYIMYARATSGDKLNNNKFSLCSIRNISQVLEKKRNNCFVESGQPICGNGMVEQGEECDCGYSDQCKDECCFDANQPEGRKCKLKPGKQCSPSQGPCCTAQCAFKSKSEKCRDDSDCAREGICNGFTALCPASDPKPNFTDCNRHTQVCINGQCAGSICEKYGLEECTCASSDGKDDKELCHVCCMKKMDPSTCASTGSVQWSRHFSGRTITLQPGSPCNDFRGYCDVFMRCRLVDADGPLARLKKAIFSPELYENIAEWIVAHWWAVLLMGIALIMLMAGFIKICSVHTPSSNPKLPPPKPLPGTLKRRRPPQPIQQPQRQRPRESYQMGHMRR
ADAM9, sequence (Q13443 29-819): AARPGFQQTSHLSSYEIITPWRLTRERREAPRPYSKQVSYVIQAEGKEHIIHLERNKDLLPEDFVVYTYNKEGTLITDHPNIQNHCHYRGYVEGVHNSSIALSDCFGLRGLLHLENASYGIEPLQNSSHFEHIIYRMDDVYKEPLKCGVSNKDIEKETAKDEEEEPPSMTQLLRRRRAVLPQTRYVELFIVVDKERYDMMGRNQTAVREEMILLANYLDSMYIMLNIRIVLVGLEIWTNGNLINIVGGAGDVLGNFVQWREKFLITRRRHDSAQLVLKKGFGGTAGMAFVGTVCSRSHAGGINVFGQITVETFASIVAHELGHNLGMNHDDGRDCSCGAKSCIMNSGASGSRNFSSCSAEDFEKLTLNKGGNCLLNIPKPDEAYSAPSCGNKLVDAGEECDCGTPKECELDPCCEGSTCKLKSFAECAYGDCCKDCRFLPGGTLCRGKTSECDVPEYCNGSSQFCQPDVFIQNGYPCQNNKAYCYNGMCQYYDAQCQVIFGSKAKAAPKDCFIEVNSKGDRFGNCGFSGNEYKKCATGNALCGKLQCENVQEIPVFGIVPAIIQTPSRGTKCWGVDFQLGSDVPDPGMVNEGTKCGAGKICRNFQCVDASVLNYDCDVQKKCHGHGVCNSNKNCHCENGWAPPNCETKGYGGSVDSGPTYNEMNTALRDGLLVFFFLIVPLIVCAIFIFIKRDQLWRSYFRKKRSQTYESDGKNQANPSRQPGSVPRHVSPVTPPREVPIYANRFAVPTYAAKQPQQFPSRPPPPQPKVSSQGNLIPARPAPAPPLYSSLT

Row | Compound | % TACE inhibition at 10 μM (TACE enzyme) | IC50 (TACE enzyme; [1]) | further results
1 | Cc1cc(COc2ccc(C(=O)NC[C@@H](C(=O)NO)N3CCN(Cc4ccccc4)CC3)cc2)c2ccccc2n1 [Example 22, N—[(S)-2-(4-Benzylpiperazin-1-yl)-2-hydroxycarbamoylethyl]-4-(2-methylquinolin-4-yl-methoxy)benzamide] | 97% | 79 nM | –
2 | CCN1CCN([C@@H](CNC(=O)c2ccc(OCc3cc(C)nc4ccccc34)cc2)C(=O)NO)CC1 [Example 25, N—[(S)-2-(4-Ethylpiperazin-1-yl)-2-hydroxycarbamoylethyl]-4-(2-methylquinolin-4-ylmethoxy)-benzamide] | 90% | 45 nM | –
3 | CC#CCOc1ccc(C(=O)NCC(C(=O)NO)N2CCN(S(C)(=O)=O)CC2)cc1 (stereo not drawn) [Example 1, 4-But-2-ynyloxy-N-[2-hydroxycarbamoyl-2-(4-methanesulphonylpiperazin-1-yl)ethyl]benzamide] | 100% | 32 nM | –
4 | Cc1ccc(COc2ccc(C(=O)NC[C@@H](C(=O)NO)N3CCN(S(C)(=O)=O)CC3)cc2)cc1 [Example 11, N—[(S)-2-hydroxycarbamoyl-2-(4-methane-sulphonylpiperazin-1-yl)ethyl]-4-(4-methylbenzyloxy)-benzamide] | 96% | 95 nM | –
5 | O=C(NCC(C(=O)NO)N1CCN(Cc2ccccc2)CC1)c1ccc(OCc2c(C(F)(F)F)nn3ccccc23)cc1 (stereo not drawn) [Example 27, N-[2-(4-Benzylpiperazin-1-yl)-2-hydroxycarbamoylethyl]-4-(2-trifluoromethylpyrazolo[1,5-a]pyridin-3-ylmethoxy)benzamide] | 95% | – | IC50 (MMP1): > 10000 nM; IC50 (MMP3): > 10000 nM; IC50 (MMP9): > 10000 nM; IC50 (ADAM10): > 10000 nM; IC50 (ADAM9): > 10000 nM
6 | Cc1cc(COc2ccc(C(=O)NC[C@@H](C(=O)NO)N3CCN(S(=O)(=O)C(C)C)CC3)cc2)c2ccccc2n1 [Example 23, N-{(S)-2-Hydroxycarbamoyl-2-[4-(propane-2-sulphonyl)piperazin-1-yl]ethyl}-4-(2-methylquinolin-4-ylmethoxy)benzamide] | 97% | 102 nM | –
7 | Cc1cc(COc2ccc(C(=O)NC[C@@H](C(=O)NO)N3CCN(S(C)(=O)=O)CC3)cc2)c2ccccc2n1.Cl.Cl [Example 24, N—[(S)-2-Hydroxycarbamoyl-2-(4-methane-sulphonylpiperazin-1-yl)ethyl]-4-(2-methylquinolin-4-ylmethoxy)benzamide dihydrochloride] | 98% | – | –
8 | Cc1ccc2ccccc2c1COc1ccc(C(=O)NC[C@@H](C(=O)NO)N2CCN(S(C)(=O)=O)CC2)cc1 [Example 19, N—[(S)-2-Hydroxycarbamoyl-2-(4-methane-sulphonylpiperazin-1-yl)ethyl]-4-(2-methylnaphthalen-1-ylmethoxy)benzamide] | 90% | 138 nM | –
9 | CS(=O)(=O)N1CCN([C@@H](CNC(=O)c2ccc(OCc3ccc(F)cc3)cc2)C(=O)NO)CC1 [Example 9, 4-(4-fluorobenzyloxy)-N—[(S)-2-hydroxycarbamoyl-2-(4-methanesulphonylpiperazin-1-yl)ethyl]benzamide] | 98% | 21 nM | –
10 | Cc1cc(COc2ccc(C(=O)NC[C@@H](C(=O)NO)N3CCN(S(C)(=O)=O)CC3)cc2)c2ccccc2n1 [Example 14, N—[(S)-2-Hydroxycarbamoyl-2-(4-methane-sulphonylpiperazin-1-yl)ethyl]-4-(2-methylquinolin-4-ylmethoxy)benzamide] | 98% | – | IC50 (MMP1): 2610 nM; IC50 (MMP3): 6830 nM; IC50 (ADAM10): 5790 nM
11 | CS(=O)(=O)N1CCN([C@@H](CNC(=O)c2ccc(OCc3ccncc3)cc2)C(=O)NO)CC1 [Example 18, N—[(S)-2-Hydroxycarbamoyl-2-(4-methane-sulphonylpiperazin-1-yl)ethyl]-4-(pyridin-4-ylmethoxy)-benzamide] | 98% | 99 nM | –
12 | CS(=O)(=O)N1CCN([C@@H](CNC(=O)c2ccc(OCc3ccccc3)cc2)C(=O)NO)CC1 [Example 6, 4-benzyloxy-N—[(S)-2-hydroxycarbamoyl-2-(4-methanesulphonylpiperazin-1-yl)ethyl]benzamide] | 100% | 40 nM | –
13 | CC#CCOc1ccc(C(=O)NC[C@@H](C(=O)NO)N2CCN(S(C)(=O)=O)CC2)cc1 [Example 2, 4-But-2-ynyloxy-N—[(S)-2-hydroxycarbamoyl-2-(4-methanesulphonylpiperazin-1-yl)ethyl]benzamide] | 100% | 28 nM | IC50 (TACE enzyme; selectivity table): 28 nM; IC50 (MMP1): > 10000 nM; IC50 (MMP3): 6310 nM; IC50 (MMP9): > 10000 nM

Further compounds by falling IC50 (TACE enzyme; [1]), results first:

Row | % TACE inhibition at 10 μM (TACE enzyme) | IC50 (TACE enzyme; [1]) | Compound | further results
14 | 100% | 200 nM | CS(=O)(=O)N1CCN([C@@H](CNC(=O)c2ccc(OCC3CC3)cc2)C(=O)NO)CC1 [Example 5, 4-cyclopropylmethoxy-N—[(S)-2-hydroxycarbamoyl-2-(4-methanesulphonylpiperazin-1-yl)ethyl]benzamide] | –
15 | 100% | 160 nM | COc1ccc(C(=O)NC[C@@H](C(=O)NO)N2CCN(S(C)(=O)=O)CC2)cc1 [Example 4, N—[(S)-2-hydroxycarbamoyl-2-(4-methane-sulphonylpiperazin-1-yl)ethyl]-4-methoxybenzamide] | –
16 | 96% | 118 nM | CS(=O)(=O)N1CCN([C@@H](CNC(=O)c2ccc(OCc3ccnc4ccccc34)cc2)C(=O)NO)CC1 [Example 21, N—[(S)-2-hydroxycarbamoyl-2-(4-methane-sulphonylpiperazin-1-yl)ethyl]-4-(quinolin-4-ylmethoxy)benzamide] | –
17 | 97% | 117 nM | CS(=O)(=O)N1CCN([C@@H](CNC(=O)c2ccc(OCc3ccc(C(F)(F)F)cc3)cc2)C(=O)NO)CC1 [Example 10, N—[(S)-2-hydroxycarbamoyl-2-(4-methane-sulphonylpiperazin-1-yl)ethyl]-4-(4-trifluoromethyl-benzyloxy)benzamide] | –
18 | 98% | 70 nM | COc1ccc(COc2ccc(C(=O)NC[C@@H](C(=O)NO)N3CCN(S(C)(=O)=O)CC3)cc2)cc1 [Example 17, N—[(S)-2-Hydroxycarbamoyl-2-(4-methane-sulphonylpiperazin-1-yl)ethyl]-4-(4-methoxybenzyloxy)-benzamide] | –
19 | 100% | 54 nM | CC#CCOc1ccc(C(=O)NC[C@@H](C(=O)NO)N2CCN(S(=O)(=O)c3ccc(C)cc3)CC2)cc1 [Example 8, 4-but-2-ynyloxy-N-{(S)-2-hydroxycarbamoyl-2-[4-(toluene-4-sulphonyl)piperazin-1-yl]ethyl}benzamide] | –
20 | 97% | 35 nM | CS(=O)(=O)N1CCN([C@@H](CNC(=O)c2ccc(OCC#CCO)cc2)C(=O)NO)CC1 [Example 16, 4-(4-Hydroxybut-2-ynyloxy)-N—[(S)-2-hydroxycarbamoyl-2-(4-methanesulphonylpiperazin-1-yl)-ethyl]benzamide] | –
21 | 98% | 22 nM | CC#CCOc1ccc(C(=O)N(C)C[C@@H](C(=O)NO)N2CCN(S(C)(=O)=O)CC2)cc1 [Example 13, 4-But-2-ynyloxy-N—[(S)-2-hydroxycarbamoyl-2-(4-methanesulphonylpiperazin-1-yl)ethyl]-N-methylbenzamide] | –
